Assay [1] concerns the target T1, potassium ion channel hERG (human Ether-á-go-go-Related Gene) (Homo sapiens, UniProt Q12809).
T1 construct: expressed in transfected cells; host or cells: Chinese hamster ovary K1 (CHO)
As to the kind of experiment: Assay 5 - hERG assay (SyncroPatch 384PE patch clamp, CHO cells). The class given is cell-based. The settings on record: geometric mean, CHO cells over-expressing hERG, read-out: Assay 5 (hERG Hu CHO IF EPh CR-Syncro) GMean IC50. The protocol:
Assay 5—hERG Assay (Human Ether-á-go-go-Related Gene)
This assay (human Ether-á-go-go-Related Gene) measures activity of the compounds at the potassium ion channel hERG (human Ether-á-go-go-Related Gene).
Experiments were performed on the SyncroPatch 384PE high throughput patch clamp platform at room temperature and medium resistance chips with 4 patch holes per site. Chinese hamster ovary K1 (CHO) cell lines over-expressing the ion channel of choice (hERG) were used in assay-ready format and kept in liquid nitrogen or were used from live culture. Cells were either thawed and diluted in HBSS or were detached from flasks and resuspended in HBSS. HBSS comprised 140 mM NaCl, 4 mM KCl, 10 mM HEPES and 5 mM Glucose (pH 7.4). The internal patch clamp solution was KF 120 mM, KCl 20 mM, HEPES 10 mM, EGTA 10 mM, and 25 μM Escin (pH 7.2). After the sealing process was complete, the external solution was exchanged for external patch clamp solution comprising NaCl 80 mM, KCl 4 mM, HEPES 10 mM, CaCl2 2 mM, MgCl2 1 mM, glucose 5 mM, and NMDG 60 mM (pH 7.4). All solutions were stored at room temperature, except Escin, which was stored at 4° C. All test compounds were dispensed in greiner-bio 384 well plates and tested in a 6 point cumulative assay (final DMSO concentration 0.33%). Only wells that passed previously agreed acceptance criteria for this platform were used in this analysis (30 MegaOhm seal resistance, Z prime>0.4 and current size>0.2 nA).
(hERG is a cardiac potassium channel; its block is linked to QT prolongation.)

Assay [2] deals with T2, PCSK9 (Homo sapiens, UniProt Q8NBP7, G670E/V474I). Nature of the assay: cell-based.
Target sequence in this assay (Q8NBP7 31-152): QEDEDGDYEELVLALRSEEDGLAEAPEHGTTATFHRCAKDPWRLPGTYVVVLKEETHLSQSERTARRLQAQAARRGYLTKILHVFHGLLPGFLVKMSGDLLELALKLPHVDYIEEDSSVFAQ
Target sequence in this assay (Q8NBP7 153-692 V474I/G670E): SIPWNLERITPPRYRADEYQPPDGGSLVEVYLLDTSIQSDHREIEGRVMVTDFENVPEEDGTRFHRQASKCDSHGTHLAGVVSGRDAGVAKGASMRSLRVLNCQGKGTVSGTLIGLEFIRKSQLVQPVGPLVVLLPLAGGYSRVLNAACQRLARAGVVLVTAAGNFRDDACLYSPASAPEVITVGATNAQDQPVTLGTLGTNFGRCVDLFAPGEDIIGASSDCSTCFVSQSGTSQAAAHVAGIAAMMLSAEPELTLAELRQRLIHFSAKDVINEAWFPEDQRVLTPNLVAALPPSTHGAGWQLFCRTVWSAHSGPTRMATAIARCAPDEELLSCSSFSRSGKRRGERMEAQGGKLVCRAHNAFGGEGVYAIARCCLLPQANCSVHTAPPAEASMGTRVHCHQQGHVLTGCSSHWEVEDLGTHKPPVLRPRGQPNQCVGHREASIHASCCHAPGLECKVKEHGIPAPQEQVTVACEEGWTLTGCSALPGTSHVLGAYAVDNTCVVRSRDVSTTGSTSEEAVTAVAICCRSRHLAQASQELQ
From the text: This assay measures for PCSK9 antagonist activity based on a test compound's capacity to restore LDL-C uptake in HepG2 cells. The assay is based on exogenous PCSK9 and LDL-C complexed with a pH-sensitive dye. Outside the cells, at neutral pH, the pHrodo Red-LDL is dimly fluorescent but upon LDLR mediated endocytosis it fluoresces brightly. PCSK9 traffics the LDLR to intracellular degradation and reduces uptake of LDL-C. Inhibition of PCSK9 reduces LDLR degradation and the increased LDL-C uptake is quantified by fluorescence microscopy.
Cell medium: MEM supplemented with 10% FBS, 1× NEAA and Sodium Pyruvate
Assay medium: OptiMem supplemented with penicillin/streptomycin
Cells: HepG2 (ATCC #HB-8065)
Cryopreserved HepG2 cells were thawed in assay medium and centrifuged for 5 min at 250 g. Supernatant was discarded and the cell pellet resuspended in cell medium and counted with a Nucleocounter. Cells were again centrifuged 5 min at 250 g and the pellet was resuspended to 500000 cells/mL in assay medium. • 2. 20 μL of above cell mix was dispensed into black pclear TC treated 384 well plates with Multidrop Combi and left at room temperature for 20 minutes. • 3. Plates were incubated at 37° C., 5% CO2 for 24 h
Test compounds were prepared in concentration response in DMSO with a half-log dilution factor in DMSO in Echo 384 LDV plates starting at 10 mM. • 2. 30 nL of above test compounds were dispensed with Echo 655 to cells for a top concentration of 10 μM • 3. […] Plates were incubated at 37° C., 5% CO2 for 24 h
10 μL pHrodo Red-LDL in assay medium was dispensed to cells with Multidrop Combi for 6 μg/mL • 2. Plates were incubated at 37° C., 5% CO2 and imaged with the Incucyte S3 after 4 h and 24 h
Image data was processed using Incucyte 2021, a software to identify cells and red fluorescent intensity. Screener was used to further process data. Data was normalized as % effect of the signal between median values of the on-plate controls of DMSO and 100 nM Evolocumab according to the formula % effect=−100*(x−DMSO)/(Evolocumab−DMSO) where x equals the measured signal. Concentration response data of the normalized values were fitted using a four-parameter logistic fit.
The target of assay [3] is GSK3b (Glycogen synthase kinase-3 beta) (Homo sapiens, UniProt P49841). As to the kind of experiment: Assay 6 - GSK3b assay (ThermoFisher, FRET Z-Lyte). The conditions noted are these: geometric mean; ATP Conc: 10.000 μM; read-out: Assay 6 (GSK3B FRET-Z-Lyte CR) GMean IC50 (μM) ATP Conc: 10.000. In kind it is biochemical. The protocol:
This assay measures the activity of the compounds at GSK3b (Glycogen synthase kinase-3 beta).
The test compounds were screened in 1% DMSO (final) in the well. For 10-point titrations, 3-fold serial dilutions are conducted from the starting concentration of 10 μM.
• Bar-coded Corning, low volume NBS, black 384-well plate • 1. 2.5 μL—4× Test Compound or 100 nL 100× plus 2.4 μL kinase buffer • 2. 5 μL—2× Peptide/Kinase Mixture • 3. 2.5 μL—4× ATP Solution • 4. 30-second plate shake • 5. 60-minute Kinase Reaction incubation at room temperature • 6. 5 μL—Development Reagent Solution • 7. 30-second plate shake • 8. 60-minute Development Reaction incubation at room temperature • 9. Read on fluorescence plate reader and analyse the data
In step 2, the 2× GSK3β (GSK3 beta)/Ser/Thr (Glycogen synthase kinase-3 beta/Serine/Threonine) 09 mixture is prepared in 50 mM HEPES (4-(2-hydroxyethyl)-1-piperazineethanesulfonic acid) pH 7.5, 0.01% BRIJ-35, 10 mM MgCl2, 1 mM EGTA (egtazic acid). The final 10 μL Kinase Reaction consists of 0.22-0.92 ng GSK3β (GSK3 beta) and 2 μM Ser/Thr 09 in 50 mM HEPES pH 7.5, 0.01% BRIJ-35, 10 mM MgCl2, 1 mM EGTA.
In step 3 the ATP Solution is diluted to a 4× working concentration in Kinase Buffer (50 mM HEPES pH 7.5, 0.01% BRIJ-35, 10 mM MgCl2, 1 mM EGTA).
In Step 6 the Development Reagent is diluted 1:512 in Development Buffer (10× Novel PKC Lipid Mix: 2 mg/mL Phosphatidyl Serine, 0.2 mg/mL DAG in 20 mM HEPES, pH 7.4, 0.3% CHAPS).
SelectScreen® Kinase Profiling Service uses XLfit from IDBS. The dose response curve is curve fit to model number 205 (sigmoidal dose-response model).

Assay [4] addresses T2, PCSK9. Nature of the assay: biochemical.
Target sequence in this assay (Q8NBP7 with tags, fused parts or gaps V474I/G670E): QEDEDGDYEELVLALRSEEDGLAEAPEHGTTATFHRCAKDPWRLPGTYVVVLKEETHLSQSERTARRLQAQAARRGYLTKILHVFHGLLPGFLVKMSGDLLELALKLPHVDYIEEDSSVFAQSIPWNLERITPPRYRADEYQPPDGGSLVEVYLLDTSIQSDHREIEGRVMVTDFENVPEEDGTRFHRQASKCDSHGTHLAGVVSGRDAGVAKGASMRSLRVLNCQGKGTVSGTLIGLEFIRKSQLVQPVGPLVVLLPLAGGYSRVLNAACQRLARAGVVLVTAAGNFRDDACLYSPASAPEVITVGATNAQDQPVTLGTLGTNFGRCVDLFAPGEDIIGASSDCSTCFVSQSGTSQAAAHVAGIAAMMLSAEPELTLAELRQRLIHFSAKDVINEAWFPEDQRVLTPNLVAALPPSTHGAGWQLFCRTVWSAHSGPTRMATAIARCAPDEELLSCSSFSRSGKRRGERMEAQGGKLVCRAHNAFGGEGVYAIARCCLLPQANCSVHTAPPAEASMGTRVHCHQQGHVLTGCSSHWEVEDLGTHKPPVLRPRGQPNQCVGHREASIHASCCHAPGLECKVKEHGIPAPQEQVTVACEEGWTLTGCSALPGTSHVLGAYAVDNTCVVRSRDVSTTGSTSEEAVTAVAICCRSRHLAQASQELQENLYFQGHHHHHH

The structures appear in SMILES notation.

T1 sequence (Q12809 whole entry): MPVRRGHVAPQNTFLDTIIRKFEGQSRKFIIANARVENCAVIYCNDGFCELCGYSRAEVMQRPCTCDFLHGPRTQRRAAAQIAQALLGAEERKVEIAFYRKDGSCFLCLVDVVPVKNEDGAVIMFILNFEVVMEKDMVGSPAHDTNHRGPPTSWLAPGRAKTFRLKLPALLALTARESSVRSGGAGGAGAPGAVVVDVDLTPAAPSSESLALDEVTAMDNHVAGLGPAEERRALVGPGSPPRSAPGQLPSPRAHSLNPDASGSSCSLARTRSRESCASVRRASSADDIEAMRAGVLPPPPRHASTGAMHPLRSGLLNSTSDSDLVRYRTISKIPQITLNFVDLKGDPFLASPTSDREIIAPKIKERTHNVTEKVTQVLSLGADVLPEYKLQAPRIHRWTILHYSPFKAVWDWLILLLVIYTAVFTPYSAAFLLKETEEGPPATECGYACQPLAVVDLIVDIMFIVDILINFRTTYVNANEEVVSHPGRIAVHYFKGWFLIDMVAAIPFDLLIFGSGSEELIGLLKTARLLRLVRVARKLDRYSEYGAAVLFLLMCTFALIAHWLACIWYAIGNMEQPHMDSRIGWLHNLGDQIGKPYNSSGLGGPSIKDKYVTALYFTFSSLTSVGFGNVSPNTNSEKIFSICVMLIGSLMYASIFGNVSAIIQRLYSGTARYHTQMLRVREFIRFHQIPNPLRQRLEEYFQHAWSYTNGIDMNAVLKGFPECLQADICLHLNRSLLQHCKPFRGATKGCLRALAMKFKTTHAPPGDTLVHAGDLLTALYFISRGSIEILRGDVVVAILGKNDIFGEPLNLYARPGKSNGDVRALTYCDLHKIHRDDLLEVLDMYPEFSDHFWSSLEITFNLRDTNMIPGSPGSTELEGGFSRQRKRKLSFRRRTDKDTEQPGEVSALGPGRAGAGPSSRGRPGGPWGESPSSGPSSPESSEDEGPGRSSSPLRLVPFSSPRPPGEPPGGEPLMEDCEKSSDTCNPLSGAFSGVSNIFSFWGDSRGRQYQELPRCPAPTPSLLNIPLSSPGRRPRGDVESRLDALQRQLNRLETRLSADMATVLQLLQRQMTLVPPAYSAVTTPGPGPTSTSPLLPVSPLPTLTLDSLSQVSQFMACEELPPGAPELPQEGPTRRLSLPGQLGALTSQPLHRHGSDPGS
GSK3b (Glycogen synthase kinase-3 beta), sequence (P49841 whole entry): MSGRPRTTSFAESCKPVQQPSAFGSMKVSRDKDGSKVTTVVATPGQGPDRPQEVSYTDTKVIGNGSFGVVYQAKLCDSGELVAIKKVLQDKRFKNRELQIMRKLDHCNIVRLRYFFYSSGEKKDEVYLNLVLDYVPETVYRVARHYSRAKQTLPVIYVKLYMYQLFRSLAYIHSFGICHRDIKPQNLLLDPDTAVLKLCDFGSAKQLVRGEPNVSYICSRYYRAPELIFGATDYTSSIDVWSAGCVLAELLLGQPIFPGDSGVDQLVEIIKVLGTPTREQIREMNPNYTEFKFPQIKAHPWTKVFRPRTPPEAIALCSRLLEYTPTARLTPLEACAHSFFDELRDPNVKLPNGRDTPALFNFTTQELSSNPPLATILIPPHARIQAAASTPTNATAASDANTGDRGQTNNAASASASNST

Broadly, the IC50 is the concentration at which inhibition is half-maximal. As to `O=c1ccccn1-c1ccc(N[C@H]2CC[C@H](Nc3nc4cc(Br)cnc4[nH]3)C2)nc1` [Example 54, 6′-(((1S,3S)-3-((6-Bromo-3H-imidazo[4,5-b]pyridin-2-yl)amino)cyclopentyl)amino)-2H-[1,3′-bipyridin]-2-one], the half-inhibitory concentration (IC50) in assay [1] was more than 40100 nM; against PCSK9 [2] it was 41 nM; in assay [3], 0.306 µM; at PCSK9 [4] it was 0.7 nM.

Take `N#Cc1ccc(=O)n(-c2ccc(N[C@H]3CC[C@H](Nc4nc5cccnc5[nH]4)C3)nc2)c1` [Example 43, 6′-(((1S,3S)-3-((3H-Imidazo[4,5-b]pyridin-2-yl)amino)cyclopentyl)amino)-2-oxo-2H-[1,3′-bipyridine]-5-carbonitrile]: the IC50 was more than 40000 nM in assay [1], 200 nM against PCSK9 [2], more than 10 µM in assay [3] and 4.2 nM at PCSK9 [4].

As to `Cn1c(=O)n(-c2ccc(N[C@H]3CC[C@H](Nc4nc5cccnc5[nH]4)C3)nc2)c2ccccc21` [Example 36, 1-(6-(((1S,3S)-3-((3H-Imidazo[4,5-b]pyridin-2-yl)amino)cyclopentyl)amino)pyridin-3-yl)-3-methyl-1,3-dihydro-2H-benzo[d]imidazol-2-one], the IC50 in assay [1] is 25800 nM; at PCSK9 [2], 60 nM; in assay [3], more than 10 µM; against PCSK9 [4] it was 0.6 nM.

Regarding `O=c1ccncn1-c1ccc(N[C@H]2CC[C@H](Nc3nc4cccnc4[nH]3)C2)nc1` [Example 29, 3-(6-(((1S,3S)-3-((3H-Imidazo[4,5-b]pyridin-2-yl)amino)cyclopentyl)amino)pyridin-3-yl)pyrimidin-4(3H)-one], the IC50 is more than 40000 nM in assay [1], 68 nM against PCSK9 [2], more than 10 µM in assay [3] and 5.7 nM at PCSK9 [4].

With `O=c1c(Cl)cccn1-c1ccc(N[C@H]2CC[C@H](Nc3nc4cccnc4[nH]3)C2)nc1` [Example 42, 6′-(((1S,3S)-3-((3H-Imidazo[4,5-b]pyridin-2-yl)amino)cyclopentyl)amino)-3-chloro-2H-[1,3′-bipyridin]-2-one], the concentration for half-maximal inhibition (IC50) in assay [1] is more than 40000 nM; at PCSK9 [2], 77 nM; in assay [3] it was 6.14 µM; against PCSK9 [4] it was 0.9 nM.

As to `N#Cc1ccc(=O)n(-c2ccc(N[C@H]3CC[C@H](Nc4nc5cccnc5s4)C3)nc2)c1` [Example 26, 2-Oxo-6′-(((1S,3S)-3-(thiazolo[5,4-b]pyridin-2-ylamino)cyclopentyl)amino)-2H-[1,3′-bipyridine]-5-carbonitrile], the concentration for half-maximal inhibition (IC50) is 19700 nM in assay [1], 168 nM at PCSK9 [2], more than 10 µM in assay [3] and 6.8 nM at PCSK9 [4].

In the case of `CSc1cnc2[nH]c(N[C@H]3CC[C@H](Nc4ccc(-n5ccccc5=O)cn4)C3)nc2c1` [Example 59, 6′-(((1S,3S)-3-((6-(Methylthio)-3H-imidazo[4,5-b]pyridin-2-yl)amino)cyclopentyl)amino)-2H-[1,3′-bipyridin]-2-one], the IC50 in assay [1] was more than 13500 nM; on PCSK9 [2], 106 nM; in assay [3] it was 0.794 µM; on PCSK9 [4], 3.7 nM.

Take `O=c1c(OC(F)F)cccn1-c1ccc(N[C@H]2CC[C@H](Nc3nc4cccnc4o3)C2)nc1` [Example 79, 3-(Difluoromethoxy)-6′-(((1S,3S)-3-(oxazolo[5,4-b]pyridin-2-ylamino)cyclopentyl)amino)-2H-[1,3′-bipyridin]-2-one]: the 50% inhibitory concentration (IC50) in assay [1] was 4570 nM; on PCSK9 [2] it was 123 nM; in assay [3], more than 10 µM; against PCSK9 [4] it was 4.1 nM.

Regarding `Cc1cccn(-c2ccc(N[C@H]3CC[C@H](Nc4nc5cccnc5s4)C3)nc2)c1=O` [Example 22, 3-Methyl-6′-(((1S,3S)-3-(thiazolo[5,4-b]pyridin-2-ylamino)cyclopentyl)amino)-2H-[1,3′-bipyridin]-2-one], the IC50 was 25700 nM in assay [1], 54 nM at PCSK9 [2], more than 10 µM in assay [3] and 1.2 nM against PCSK9 [4].

As to `N#Cc1cccn(-c2ccc(N[C@H]3CC[C@H](Nc4nc5cccnc5s4)C3)nc2)c1=O` [Example 23, 2-Oxo-6′-(((1S,3S)-3-(thiazolo[5,4-b]pyridin-2-ylamino)cyclopentyl)amino)-2H-[1,3′-bipyridine]-3-carbonitrile], the IC50 in assay [1] is 24600 nM; at PCSK9 [2], 92 nM; in assay [3], more than 10 µM; at PCSK9 [4] it was 1.2 nM.

Turning to `O=c1c(OC(F)F)cccn1-c1ccc(N[C@H]2CC[C@H](Nc3nc4cccnc4s3)C2)nc1` [Example 81, 3-(Difluoromethoxy)-6′-(((1S,3S)-3-(thiazolo[5,4-b]pyridin-2-ylamino)cyclopentyl)amino)-2H-[1,3′-bipyridin]-2-one], the IC50 in assay [1] was 6120 nM; against PCSK9 [2], 108 nM; in assay [3] it was more than 10 µM; against PCSK9 [4], 1.5 nM.

For the compound `CN1CC(=O)N(c2ccc(N[C@H]3CC[C@H](Nc4nc5cccnc5[nH]4)C3)nc2)C1=O` [Example 38, 3-(6-(((1S,3S)-3-((3H-Imidazo[4,5-b]pyridin-2-yl)amino)cyclopentyl)amino)pyridin-3-yl)-1-methylimidazolidine-2,4-dione], the concentration for half-maximal inhibition (IC50) was more than 40000 nM in assay [1], 158 nM on PCSK9 [2], more than 10 µM in assay [3] and 5.7 nM at PCSK9 [4].

In the case of `O=c1ccccn1-c1ccc(N[C@H]2CC[C@H](Nc3nc4cc(OC(F)(F)F)cnc4[nH]3)C2)nc1` [Example 51, 6′-(((1S,3S)-3-((6-(Trifluoromethoxy)-3H-imidazo[4,5-b]pyridin-2-yl)amino)cyclopentyl)amino)-2H-[1,3′-bipyridin]-2-one], the IC50 in assay [1] amounted to 30000 nM; on PCSK9 [2] it was 49 nM; in assay [3], 1.52 µM; against PCSK9 [4], 2.5 nM.

On to `O=c1ccc(OC(F)F)cn1-c1ccc(N[C@H]2CC[C@H](Nc3nc4cccnc4o3)C2)nc1` [Example 78, 5-(Difluoromethoxy)-6′-(((1S,3S)-3-(oxazolo[5,4-b]pyridin-2-ylamino)cyclopentyl)amino)-2H-[1,3′-bipyridin]-2-one], for which the IC50 in assay [1] was 39600 nM; against PCSK9 [2] it was 367 nM; in assay [3] it was more than 10 µM; on PCSK9 [4], 18.9 nM.

Consider `COc1ccc(=O)n(-c2ccc(N[C@H]3CC[C@H](Nc4nc5cccnc5o4)C3)nc2)c1` [Example 14, 5-Methoxy-6′-(((1S,3S)-3-(oxazolo[5,4-b]pyridin-2-ylamino)cyclopentyl)amino)-2H-[1,3′-bipyridin]-2-one], for which the IC50 in assay [1] was more than 40000 nM; on PCSK9 [2], 632 nM; in assay [3] it was 0.423 µM; on PCSK9 [4], 25.5 nM.

For the compound `N#Cc1ccc2nc(N[C@H]3CC[C@H](Nc4ccc(-n5ccccc5=O)cn4)C3)oc2c1` [Example 5, 2-(((1S,3S)-3-((2-Oxo-2H-[1,3′-bipyridin]-6′-yl)amino)cyclopentyl)amino)benzo[d]oxazole-6-carbonitrile], the IC50 amounted to 6000 nM in assay [1], 1720 nM at PCSK9 [2], 5.52 µM in assay [3] and 8.9 nM at PCSK9 [4].

Source of the values: patent US20240239767A1 (AstraZeneca AB, priority 2022, published 2024).
